According to patent EP2070549A1, “THERAPEUTIC AGENT FOR ACCELERATION OF SPINAL NERVE REPAIR COMPRISING DESACYL GHRELIN OR DERIVATIVE THEREOF AS ACTIVE INGREDIENT” (University of Miyazaki, priority 2006, dated 2008):
Values belong to the substance of their own block, whether it stands above or below them.

Assays:
[1] = target: des-acyl ghrelin specific binding sites in membrane fractions of rat fetal spinal cord (rat); assay: saturation radioligand binding, rat fetal spinal cord membranes, Scatchard/GraphPAD Prism
[2] = system: des-acyl ghrelin specific binding sites in the membrane fractions of fetal spinal cord; assay: Binding of [125I]-labelled des-acyl ghrelin to membrane fractions of fetal spinal cord (saturation and competition); set-up: species or system rat; conditions: competition with 0.1 nM labeled des-acyl ghrelin
Protocol: For instance, the identity of a substance that acts on a des-acyl ghrelin specific binding site, namely, the identity of a substance having binding activity for a des-acyl ghrelin specific binding site can be determined, as will be described later in Example 1, by first preparing samples from a tissue of interest (e.g., membrane fractions prepared from an extracted spinal cord tissue), then incubating the sample in the presence of a test substance, with or without an added radioactive ligand such as [^125I]-labeled des-acyl ghrelin, measuring the radioactivity of the samples, and analyzing the values obtained. For analysis of the values, techniques known to skilled artisans may be employed, as exemplified by the method of Scatchard and a program such as GraphPAD Prism 4 program, which are applied to calculate the maximum number of binding sites (Bmax) and the dissociation constant (Kd). The des-acyl ghrelin specific binding sites are yet to be characterized specifically but one place of their occurrence is in rat spinal cord cells, in particular, on rat spinal cord cell membranes. […]
With [^125I]-labelled des-acyl ghrelin used as a radioactive ligand, the binding of des-acyl ghrelin to the tissue membranes of fetal spinal cord was studied. […] The radioactivity of the membranes on the filters was measured with a gamma counter. […]

[3] = system: cultured fetal spinal neuronal cells; assay: BrdU incorporation into cultured fetal spinal neuronal cells, Cell Proliferation ELISA (Example 2); assay type: cell-based, rat; conditions: 0.03-300 nM tested, 12 hours, then BrdU 6 hours; FIG. 2A
Protocol: • (1) Embryos were extracted from a pregnant Wistar rat at day 17 under anesthesia. Spinal cords were collected from these embryos and subjected to papain digestion in Hank's balanced salt solution; as a result of subsequent mechanical separation by pipetting, a dispersion of fetal spinal neurons was obtained. […] These dispersed cells were suspended in a DMEM medium containing NaHCO3, 5% fetal bovine serum, penicillin (100 U/mL) and streptomycin (100 µg/mL), followed by plating onto laminin-coated 96-well multi-plates at 10^5 cells per well. After incubation for 4 days, des-acyl ghrelin (0.03-300 nM) was added to the culture and incubation was conducted for 12 hours; then, 5-bromo-2'-deoxyuridine (BrdU) ([…]) was added and incubation was conducted for an additional 6 hours; then, the des-acyl ghrelin was investigated for its action on BrdU incorporation.
• (2) After the end of the above incubation, the cells were recovered and using Cell Proliferation ELISA Kit (Roche Diagnostic GmbH, Mannheim, Germany), the amount of BrdU incorporation into the fetal spinal neuronal cells was measured to investigate the action for proliferating the spinal neuronal cells.

[4] = system: cultured fetal spinal neuronal cells; assay: BrdU positive cells by anti-BrdU immunostaining in cultured fetal spinal neuronal cells (Example 2); assay type: cell-based, rat; conditions: compared to physiological saline, FIG. 2B, 2C
Protocol: • (1) Embryos were extracted from a pregnant Wistar rat at day 17 under anesthesia. Spinal cords were collected from these embryos and subjected to papain digestion in Hank's balanced salt solution; as a result of subsequent mechanical separation by pipetting, a dispersion of fetal spinal neurons was obtained. […] These dispersed cells were suspended in a DMEM medium containing NaHCO3, 5% fetal bovine serum, penicillin (100 U/mL) and streptomycin (100 µg/mL), followed by plating onto laminin-coated 96-well multi-plates at 10^5 cells per well. […]
• (3) After the end of the above incubation (1), the cells were fixed with methanol and glacial acetic acid, had their DNA denatured with 2 N HCl; thereafter, the BrdU incorporated into the cells was measured by detecting the BrdU positive cells using a rat anti-BrdU monoclonal antibody (1:1000, Abcam, Cambridge, UK) as a primary antibody, and also using Cy™ 3-conjugated donkey anti-rat IgG polyclonal antibody (1:1000, Jackson ImmunoResearch Laboratories, Inc., PA, USA) as a secondary antibody, in order to investigate the action for proliferating spinal cord cells. […]

[5] = system: cultured spinal neuronal cells; assay: BrdU incorporation into cultured spinal neuronal cells, Cell Proliferation ELISA (Example 3); assay type: cell-based, rat; conditions: for BrdU incorporation into the cells, Mean: n 6, Control = 100.0
Source text: Embryos were extracted from a pregnant Wistar rat at day 16 by opening the abdomen under anesthesia. Spinal cords were collected from these embryos and subjected to papain digestion in Hank's balanced salt solution; as a result of subsequent mechanical separation by pipetting, a dispersion of fetal spinal nerve cells was obtained. After being filtered and centrifuged, the dispersed cells were suspended in a DMEM medium containing NaHCO3, 5% fetal bovine serum, penicillin (100 U/mL) and streptomycin (100 µg/mL), followed by plating onto laminin-coated 96-well multi-plates at 10^5 cells per well. After incubation for 4 days, 5-bromo-2'-deoxyuridine (BrdU) (10 µM) was added and incubation was conducted for 6 hours; further, rat des-acyl ghrelin, des-acyl ghrelin(1-5)-NH2 (GSSFL-NH2, SEQ ID NO:22), des-acyl ghrelin(1-7)-NH2 (GSSFLSP-NH2, SEQ ID NO:23) or des-acyl ghrelin(1-15)-NH2 (GSSFLSPEHQRVQQR-NH2, SEQ ID NO:24) was added in amounts of 0.03 - 3 nM and incubation was conducted for 12 hours before investigating the action of des-acyl ghrelin and its derivatives on BrdU incorporation.
After the end of incubation, the cells were recovered and using Cell Proliferation ELISA Kit (Roche Diagnostic GmbH, Mannheim, Germany), the amount of BrdU incorporation into the cells was measured to investigate the action for proliferating the spinal neuronal cells.

[6] = system: rat models with injured spinal cord; assay: Grafting of spinal neuronal cells and local administration of des-acyl ghrelin to rat models with injured spinal cord, frequency of standing up; assay type: in vivo; conditions: for frequency of a rat standing up per unit time: 3-minute observation
Protocol: In accordance with the procedure described in Morino, T. et al, Neuroscience Research, 2003, vol. 46, pp 309-318, the grafting of spinal neuronal cells and local administration of des-acyl ghrelin to rat models with injured spinal cord were assessed. Male SD rats (8 to 9 weeks old) were anesthetized with pentobarbital and incised in the back to expose a vertebra ([…]). After excising the vertebral arch, a dental drill was used to open a window with a diameter of […], and a stainless steel needle with a silicone rubber fixed thereto was applied vertically, followed by loading of the top with a 20-g weight. Following a compression time of 30 minutes, a damaging drop equivalent to a weight of about 100 g was finally applied from above to construct models suffering a movement disorder in the lower limbs. The animals were divided into three groups: 1) a group under sham operation; 2) a control group with injured spinal cord; and 3) a group with injured spinal cord, treated by cell grafting, and locally administered with des-acyl ghrelin. The group under sham operation received laminectomy but was simply sutured in the muscle and skin thereafter. After injuring the spinal cord, cultured spinal neuronal cells (10^5 cells/25 µL) were grafted subdurally. Rat des-acyl ghrelin was administered subdurally in an amount of 1 nmol together with the cells.
Twenty-four hours after the operation, the rats were transferred into a see-through cage and observed for the frequency of their standing up (by 3-minute observation). The principal item of observation was the frequency per unit time of the rat standing up (in such a posture that it lifted the upper limbs and supported the body weight only with the lower limbs) was counted to assess the function of its hind limbs.

[7] = target: des-acyl ghrelin specific binding sites in membrane fractions of rat fetal spinal cord (rat); assay: competition with 0.1 nM [125I]-des-acyl ghrelin on rat fetal spinal cord membranes

- Bmax (fmol/mg protein) [1]: 8.79
Substance: [^125I]-labelled des-acyl ghrelin (peptide)

- concentrations at which the binding of the labeled des-acyl ghrelin was displaced [2]: ≥ 10^-3 M
- IC50 ([2]; 4 °C for an hour): 0.0235 µM
Substance: Des-acyl ghrelin
- concentration that could increase the BrdU incorporation into the cells [3]: ≥ 3 nM
- BrdU incorporation [4]: increased
- number of cells that incorporated BrdU [4]: increased
- BrdU incorporation into the cells (in words) ([5]; 0.03 to 3 nM): increased
- BrdU incorporation into the cells, Mean ([5]; Concentration 0.03 nM): 113.6
- BrdU incorporation into the cells, Mean ([5]; Concentration 0.3 nM): 112.6
- BrdU incorporation into the cells, Mean ([5]; Concentration 3 nM): 108.2
- frequency of a rat standing up per unit time ([6]; 24 hours after operation, 1 nmol subdurally together with grafted cells (10^5 cells/25 µL)): 8.0 ± 0.0
- frequency of a rat standing up per unit time ([6]; Initial (before operation)): 15.0 ± 2.0
- frequency of standing up (in words) ([6]; combination of cell grafting and local administration, 24 hours after operation): recovery

- IC50 [7]: 0.0235 µM
Substance: unlabelled des-acyl ghrelin (peptide)
